According to patent publication US20200308170A1, “KRAS G12C INHIBITORS” (Mirati Therapeutics, Inc., priority 2017, published 2020):

Target: T1, KRas G12C (Homo sapiens, UniProt P01116, C118S/C51S/C80L/G12C)
T1 construct: GDP-loaded K-Ras (1-169) G12C, C51S, C80L, C118S
Test: KRas G12C Modification Assay (LCMS detection of covalent adduct)
Format: binding
Details: 5 μM concentration for 3 hours; LC/MS of intact protein; higher POC = higher degree of modification
Procedure: A 10 μL aliquot of each protein solution was then transferred to a 384 well microtiter plate. Initial compound stocks were generated at fifty times their desired final assay concentration in DMSO.
Exemplary compounds of Formula (II) were diluted 25-fold into K-Ras Assay Buffer to a final of two times their final concentration. A 10 μL aliquot of each diluted compound solution was then added to each of the protein solutions in the microtiter plate to initiate reaction. […] At each time point, the reactions were quenched with 20 μL of a 25 mM acetic acid solution. […] Once all reactions were quenched, the plates were heat sealed and the samples were injected into a LC/MS system for data acquisition.
Samples were injected in their liquid phase onto a C-3 reverse phase column to remove assay buffer and prepare the samples for mass spectrometer. The proteins were eluted from the column using an acetonitrile gradient and fed directly into the mass analyzer. Initial raw data analysis took place in Agilent MassHunter software immediately post data acquisition.
Raw data analysis of the intact protein was exclusively a deconvolution of the multiple charge states of each protein in solution using a maximum entropy deconvolution provided in Mass Hunter. To minimize complexity, only the data over limited mass ranges were considered for analysis, with a minimum of one Dalton mass step intervals. The heights of all masses identified during raw data analysis were exported to be further analyzed in Spotfire® data analysis software.
Final data analysis was a multistep process in the Spotfire® data analysis software package. Briefly, each protein mass was calculated as a percent of the total signal of that sample, that percentage was then normalized to the percentage of signal of the protein in the absence of reactive compounds. Those normalized signals were reported as normalized percent of control (POC). […] Key: “A”≤25% POC; “B”>25% POC−≤50% POC; “C”>50% POC and ND=not determined.

Row | Compound | POC (normalized percent of control; degree of covalent modification of KRas G12C)
1 | C=C(COC)C(=O)N1CCN(c2nc(OC[C@@H]3CCCN3C)nc3c2CCN(c2cccc4cccc(Cl)c24)C3)C[C@@H]1CC#N [Example 14, 2-[(2S)-4-[7-(8-chloro-1-naphthyl)-2-[[(2S)-1-methylpyrrolidin-2-yl]methoxy]-6,8-dihydro-5H-pyrido[3,4-d]pyrimidin-4-yl]-1-[2-(methoxymethyl)prop-2-enoyl]piperazin-2-yl]acetonitrile] | A (“A”≤25% POC)
2 | Cc1cccc(N2CCc3c(nc(OC[C@@H]4CCCN4C)nc3N3CCN(C(=O)/C=C/C(F)(F)F)[C@@H](CC#N)C3)C2)c1C [Example 15, 2-((S)-4-(7-(2,3-dimethylphenyl)-2-(((S)-1-methylpyrrolidin-2-yl)methoxy)-5,6,7,8-tetrahydropyrido[3,4-d]pyrimidin-4-yl)-1-((E)-4,4,4-trifluorobut-2-enoyl)piperazin-2-yl)acetonitrile] | C (“C”>50% POC)
3 | CN1CCC[C@H]1COc1nc2c(c(N3CCN(C(=O)/C=C/CF)[C@@H](CC#N)C3)n1)CCN(c1cccc3cccc(Cl)c13)C2 [Example 8, 2-[(2S)-4-[7-(8-chloro-1-naphthyl)-2-[[(2S)-1-methylpyrrolidin-2-yl]methoxy]-6,8-dihydro-5H-pyrido[3,4-d]pyrimidin-4-yl]-1-[(E)-4-fluorobut-2-enoyl]piperazin-2-yl]acetonitrile] | C (“C”>50% POC)
4 | CN1CCC[C@H]1COc1nc2c(c(N3CCN(C(=O)C#CCO)[C@@H](CC#N)C3)n1)CCN(c1cccc3ccccc13)C2 [Example 3, 2-((S)-1-(4-hydroxybut-2-ynoyl)-4-(2-(((S)-1-methylpyrrolidin-2-yl)methoxy)-7-(naphthalen-1-yl)-5,6,7,8-tetrahydropyrido[3,4-d]pyrimidin-4-yl)piperazin-2-yl)acetonitrile] | C (“C”>50% POC)
5 | CN1CCC[C@H]1COc1nc2c(c(N3CCN(C(=O)/C=C/C(F)F)[C@@H](CC#N)C3)n1)CCN(c1cccc3cccc(Cl)c13)C2 [Example 13, 2-[(2S)-4-[7-(8-chloro-1-naphthyl)-2-[[(2S)-1-methylpyrrolidin-2-yl]methoxy]-6,8-dihydro-5H-pyrido[3,4-d]pyrimidin-4-yl]-1-[(E)-4,4-difluorobut-2-enoyl]piperazin-2-yl]acetonitrile] | C (“C”>50% POC)

Next, values leading:

Row | POC (normalized percent of control; degree of covalent modification of KRas G12C) | Compound
6 | C (“C”>50% POC) | Cc1cccc2cccc(N3CCc4c(nc(OC[C@@H]5CCCN5C)nc4N4CCN(C(=O)/C=C/CF)[C@@H](CC#N)C4)C3)c12 [Example 35, 2-((S)-1-((E)-4-fluorobut-2-enoyl)-4-(7-(8-methylnaphthalen-1-yl)-2-(((S)-1-methylpyrrolidin-2-yl)methoxy)-5,6,7,8-tetrahydropyrido[3,4-d]pyrimidin-4-yl)piperazin-2-yl)acetonitrile]
7 | C (“C”>50% POC) | Cc1cccc2cccc(N3CCc4c(nc(OC[C@@H]5CCCN5C)nc4N4CCN(C(=O)/C=C/c5cnn(C)c5)[C@@H](CC#N)C4)C3)c12 [Example 23, 2-((S)-1-((E)-3-(1-methyl-1H-pyrazol-4-yl)acryloyl)-4-(7-(8-methylnaphthalen-1-yl)-2-(((S)-1-methylpyrrolidin-2-yl)methoxy)-5,6,7,8-tetrahydropyrido[3,4-d]pyrimidin-4-yl)piperazin-2-yl)acetonitrile]
8 | C (“C”>50% POC) | CN1CCC[C@H]1COc1nc2c(c(N3CCN(C(=O)/C=C/C(F)(F)F)[C@@H](CC#N)C3)n1)CCN(c1cccc3cccc(Cl)c13)C2 [Example 19, 2-((S)-4-(7-(8-chloronaphthalen-1-yl)-2-(((S)-1-methylpyrrolidin-2-yl)methoxy)-5,6,7,8-tetrahydropyrido[3,4-d]pyrimidin-4-yl)-1-((E)-4,4,4-trifluorobut-2-enoyl)piperazin-2-yl)acetonitrile]
9 | C (“C”>50% POC) | Cc1cccc2cccc(N3CCc4c(nc(OC[C@@H]5CCCN5C)nc4N4CCN(C(=O)/C=C/C(F)F)[C@@H](CC#N)C4)C3)c12 [Example 24, 2-((S)-1-((E)-4,4-difluorobut-2-enoyl)-4-(7-(8-methylnaphthalen-1-yl)-2-(((S)-1-methylpyrrolidin-2-yl)methoxy)-5,6,7,8-tetrahydropyrido[3,4-d]pyrimidin-4-yl)piperazin-2-yl)acetonitrile]
10 | C (“C”>50% POC) | Cc1cccc2cccc(N3CCc4c(nc(OC[C@@H]5CCCN5C)nc4N4CCN(C(=O)/C=C/CCl)[C@@H](CC#N)C4)C3)c12 [Example 27, 2-((S)-1-((E)-4-chlorobut-2-enoyl)-4-(7-(8-methylnaphthalen-1-yl)-2-(((S)-1-methylpyrrolidin-2-yl)methoxy)-5,6,7,8-tetrahydropyrido[3,4-d]pyrimidin-4-yl)piperazin-2-yl)acetonitrile]
11 | C (“C”>50% POC) | Cc1cccc2cccc(N3CCc4c(nc(OC[C@@H]5CCCN5C)nc4N4CCN(C(=O)/C=C/C(F)(F)F)[C@@H](CC#N)C4)C3)c12 [Example 20, 2-((S)-4-(7-(8-methylnaphthalen-1-yl)-2-(((S)-1-methylpyrrolidin-2-yl)methoxy)-5,6,7,8-tetrahydropyrido[3,4-d]pyrimidin-4-yl)-1-((E)-4,4,4-trifluorobut-2-enoyl)piperazin-2-yl)acetonitrile]
12 | C (“C”>50% POC) | Cc1cccc2cccc(N3CCc4c(nc(OC[C@@H]5CCCN5C)nc4N4CCN(C(=O)/C=C/c5ccncc5)[C@@H](CC#N)C4)C3)c12 [Example 55, 2-((S)-4-(7-(8-methylnaphthalen-1-yl)-2-(((S)-1-methylpyrrolidin-2-yl)methoxy)-5,6,7,8-tetrahydropyrido[3,4-d]pyrimidin-4-yl)-1-((E)-3-(pyridin-4-yl)acryloyl)piperazin-2-yl)acetonitrile]
13 | C (“C”>50% POC) | CN(C)C/C=C(/F)C(=O)N1CCN(c2nc(OC[C@@H]3CCCN3C)nc3c2CCN(c2cccc4cccc(Cl)c24)C3)C[C@@H]1CC#N [Example 32, 2-[(2S)-4-[7-(8-chloro-1-naphthyl)-2-[[(2S)-1-methylpyrrolidin-2-yl]methoxy]-6,8-dihydro-5H-pyrido[3,4-d]pyrimidin-4-yl]-1-[(E)-4-(dimethylamino)-2-fluoro-but-2-enoyl]piperazin-2-yl]acetonitrile]
